Test system: Human recombinant GST-PI3K
Assay: PI3K induced-lipid phosphorylation, neomycin-SPA scintillation proximity assay
Format: biochemical
Conditions: for IC50: Human recombinant GST-PI3K, SPA
Text: The efficacy of compounds of the invention in inhibiting the PI3K induced-lipid phosphorylation may be tested in the following binding assay. The assay combines the scintillation proximity assay technology (SPA, Amersham) with the capacity of neomycin (a polycationic antibiotic) to bind phospholipids with high affinity and specificity. The Scintillation Proximity Assay is based on the properties of weakly emitting isotopes (such as ^3H, ^125I, ^33P). Coating SPA beads with neomycin allows the detection of phosphorylated lipid substrates after incubation with recombinant PI3K and radioactive ATP in the same well, by capturing the radioactive phospholipids to the SPA beads through their specific binding to neomycin.
To a 96 wells MTP containing 10 μL of the test compound of Formula (I) (solubilized in 10% DMSO; […]), the following assay components are added: 1) 10 μL of lipid micelles 2) 20 μL of Kinase buffer ([^33P]γATP162 μM/300 nCi, MgCl2 2.5 mM, DTT 2.5 mM, Na3VO4 25 uM in Hepes 40 mM, pH 7.4) and 3) 10 μL (100 ng) of Human recombinant GST-PI3K (in Hepes 40 mM, pH 7.4, ethylenglycol 4%). After incubation at room temperature for 120 minutes, with gentle agitation, the reaction is stopped by addition of 200 μL of a solution containing 250 μg of neomycin-coated PVT SPA beads, ATP 60 mM and EDTA 6.2 mM in PBS. The assay is further incubated at room temperature for 60 minutes with gentle agitation to allow binding of phospholipids to neomycin-SPA beads. After precipitation of the neomycin-coated PVT SPA beads for 5 minutes at 1500×g, radioactive PtdIns(3)P is quantified by scintillation counting in a Wallac MicroBeta™ plate counter.
The values indicated in Table I below refer to the IC50 (μM) with respect to PI3K, i.e. the amount necessary to achieve 50% inhibition of said target. Said values show a considerable inhibitory potency of quinoxaline compounds with regard to PI3K.

Row | Structure (SMILES) | IC50 | PI3K inhibition at single concentration (at 20 μM)
1 | COc1ccc(CCCO)c(Nc2nc3ccccc3nc2NS(=O)(=O)c2c(C)noc2C)c1 [Example 42, N-(3-{[2-(3-Hydroxpropyl)-5-methoxyphenyl]amino}quinoxalin-2-yl)-3,5-dimethylisoxazole-4-sulfonamide] | 130 nM | –
2 | COc1ccc(CCCO)c(Nc2nc3ccccc3nc2NS(=O)(=O)c2cccc(NC(=O)CO)c2)c1 [Example 102, 2-Hydroxy-N-(3-{[(3-{[2-(3-hydroxypropyl)-5-methoxyphenyl]amino}quinoxalin-2-yl)amino]sulfonyl}phenyl)acetamide] | 12 nM | –
3 | COc1ccc(CCCO)c(Nc2nc3ccccc3nc2NS(=O)(=O)c2cn(C)c(CO)n2)c1 [Example 74, 2-(Hydroxymethyl)-N-(3-{[2-(3-hydroxypropyl)-5-methoxyphenyl]amino}quinoxalin-2-yl)-1-methyl-1H-imidazole-4-sulfonamide] | 84 nM | –
4 | COc1cc(Nc2nc3ccccc3nc2NS(=O)(=O)c2cn(C)cn2)cc(C(=O)N(C)C)c1 [Example 75, 3-Methoxy-N,N-dimethyl-5-[(3-{[(1-methyl-1H-imidazol-4-yl)sulfonyl]amino}quinoxalin-2-yl)amino]benzamide] | 760 nM | –
5 | COc1ccc(CC2CCS(=O)(=O)CC2)c(Nc2nc3ccccc3nc2NS(=O)(=O)c2ccc(CN(C)C)cc2)c1 [Example 85, 4-[(dimethylamino)methyl]-N-[3-({2-[(1,1-dioxidotetrahydro-2H-thiopyran-4-yl)methyl]-5-methoxyphenyl}amino)quinoxalin-2-yl]benzenesulfonamide] | 10 nM | –
6 | COc1ccc(C(CO)CO)c(Nc2nc3ccccc3nc2NS(=O)(=O)c2cn(C)cn2)c1 [Example 29, N-[3-({2-[2-Hydroxy-1-(hydroxymethyl)ethyl]-5-methoxyphenyl}amino)quinoxalin-2-yl]-1-methyl-1H-imidazole-4-sulfonamide] | 550 nM | –
7 | COc1ccc(CCCO)c(Nc2nc3ccccc3nc2NS(=O)(=O)c2cn(C)cn2)c1 [Example 28, N-(3-{[2-(3-Hydroxypropyl)-5-methoxyphenyl]amino}quinoxalin-2-yl)-1-methyl-1H-imidazole-4-sulfonamide] | 21 nM | –
8 | COc1ccc(CCO)c(Nc2nc3ccccc3nc2NS(=O)(=O)c2ccc(F)cc2)c1 [Example 36, 4-Fluoro-N-(3-{[2-(2-hydroxyethyl)-5-methoxyphenyl]amino}quinoxalin-2-yl)benzenesulfonamide] | 23 nM | –
9 | COc1ccc(CC2CCCCC2)c(Nc2nc3ccccc3nc2NS(C)(=O)=O)c1 [Example 21, N-(3-{[2-(cyclohexylmethyl)-5-methoxyphenyl]amino}quinoxalin-2-yl)methanesulfonamide] | – | 68% at 20 μM
10 | COc1ccc(CC2CCSCC2)c(Nc2nc3ccccc3nc2NS(=O)(=O)c2cn(C)cn2)c1 [Example 25, N-(3-{[5-methoxy-2-(tetrahydro-2H-thiopyran-4-ylmethyl)phenyl]amino}quinoxalin-2-yl)-1-methyl-1H-imidazole-4-sulfonamide] | 100 nM | –
11 | CCS(=O)(=O)Nc1nc2ccccc2nc1Nc1cc(OC)ccc1CCS(C)(=O)=O [Example 51, N-[3-({5-Methoxy-2-[2-(methylsulfonyl)ethyl]phenyl}amino)quinoxalin-2-yl]ethanesulfonamide] | 88 nM | –
12 | CCCS(=O)(=O)Nc1nc2ccccc2nc1Nc1cc(OC)ccc1CCCO [Example 49, N-(3-{[2-(3-Hydroxypropyl)-5-methoxyphenyl]amino}quinoxalin-2-yl)propane-1-sulfonamide] | 49 nM | –
13 | COc1ccc(CCCO)c(Nc2nc3ccccc3nc2NS(=O)(=O)c2cn(C)c(CN(C)C)n2)c1 [Example 47, 2-[(Dimethylamino)methyl]-N-(3-{[2-(3-hydroxypropyl)-5-methoxyphenyl]amino}quinoxalin-2-yl)-1-methyl-1H-imidazole-4-sulfonamide] | 28 nM | –
14 | COc1ccc(CCO)c(Nc2nc3ccccc3nc2NS(=O)(=O)c2ccc(CN3CCC(F)CC3)cc2)c1 [Example 90] | 43 nM | –
15 | COc1ccc(CC2CCCC2)c(Nc2nc3ccccc3nc2NS(=O)(=O)c2cn(C)cn2)c1 [Example 24, N-(3-{[2-(cyclopentylmethyl)-5-methoxyphenyl]amino}quinoxalin-2-yl)-1-methyl-1H-imidazole-4-sulfonamide] | 180 nM | –
16 | COc1ccc(CCCO)c(Nc2nc3ccccc3nc2NS(=O)(=O)C2CCNCC2)c1 [Example 99, N-(3-{[2-(3-Hydroxypropyl)-5-methoxyphenyl]amino}quinoxalin-2-yl)piperidine-4-sulfonamide] | 26 nM | –
17 | COc1ccc(CC2CCC(O)CC2)c(Nc2nc3ccccc3nc2NS(=O)(=O)c2cn(C)cn2)c1 (centres unmarked) [Example 22, N-[3-({2-[(4-hydroxycyclohexyl)methyl]-5-methoxyphenyl}amino)quinoxalin-2-yl]-1-methyl-1H-imidazole-4-sulfonamide] | 18 nM | –
18 | COc1ccc(CC2CCOCC2)c(Nc2nc3ccccc3nc2NS(=O)(=O)c2ccc(F)cc2)c1 [Example 10, 4-fluoro-N-(3-{[5-methoxy-2-(tetrahydro-2H-pyran-4-ylmethyl)phenyl]amino}quinoxalin-2-yl)benzenesulfonamide] | 150 nM | –
19 | COc1ccc(CCO)c(Nc2nc3ccccc3nc2NS(=O)(=O)CCCS(C)(=O)=O)c1 [Example 61, N-(3-{[2-(2-Hydroxyethyl)-5-methoxyphenyl]amino}quinoxalin-2-yl)-3-(methylsulfonyl)propane-1-sulfonamide] | 120 nM | –
20 | COc1ccc(C(C)C)c(Nc2nc3ccccc3nc2NS(=O)(=O)c2cn(C)cn2)c1 [Example 30, N-{3-[(2-Isopropyl-5-methoxyphenyl)amino]quinoxalin-2-yl}-1-methyl-1H-imidazole-4-sulfonamide] | 200 nM | –
21 | COc1cc(Nc2nc3ccccc3nc2NS(=O)(=O)CCCS(C)(=O)=O)cc(C(=O)NCCO)c1 [Example 73, N-(2-Hydroxyethyl)-3-methoxy-5-{[3-({[3-(methylsulfonyl)propyl]sulfonyl}amino)quinoxalin-2-yl]amino}benzamide] | 350 nM | –
22 | COc1ccc(CCS(C)(=O)=O)c(Nc2nc3ccccc3nc2NS(C)(=O)=O)c1 [Example 44, N-[3-({5-Methoxy-2-[2-(methylsulfonyl)ethyl]phenyl}amino)quinoxalin-2-yl]methanesulfonamide] | 200 nM | –
23 | COc1ccc(CC2CCN(C)CC2)c(Nc2nc3ccccc3nc2NS(=O)(=O)c2cccnc2)c1 [Example 12, N-[3-({5-methoxy-2-[(1-methylpiperidin-4-yl)methyl]phenyl}amino)quinoxalin-2-yl]pyridine-3-sulfonamide] | 45 nM | –
24 | COc1ccc(CCO)c(Nc2nc3ccccc3nc2NS(=O)(=O)c2ccc(NC(=O)CN(C)C)cc2)c1 [Example 70, 2-Dimethylamino-N-(4-{[(3-{[2-(2-hydroxyethyl)-5-methoxyphenyl]amino}quinoxalin-2-yl)]sulfamoyl}phenyl)-acetamide] | 27 nM | –
25 | COc1ccc(CCO)c(Nc2nc3ccccc3nc2NS(=O)(=O)C2CCS(=O)(=O)C2)c1 (centres unmarked) [Example 56] | 86 nM | –
26 | COc1ccc(CC2CCC(O)CC2)c(Nc2nc3ccccc3nc2NS(=O)(=O)c2ccc(CN(C)C)cc2)c1 (centres unmarked) [Example 84, 4-[(dimethylamino)methyl]-N-[3-({2-[(4-hydroxycyclohexyl)methyl]-5-methoxyphenyl}amino)quinoxalin-2-yl]benzenesulfonamide] | 26 nM | –
